# Patent publication US20030215472A1, “Methods and compositions employing a dialkyl amide” (priority 2002, published 2003)
# Legend:
# P. acnes ATCC#11827 [1] = assay: MLC by swabbing of the zones, P. acnes; format: cell-based, Propoinibacterium acnes; design: key: (+): MLC results are recorded as positive or negative for growth; (−): MLC results are recorded as positive or negative for growth
# Description: (§1) For MLC Preparation, swabbing of the zones was performed to calculate MLC results. […] These swabs were then placed in TSA or BHIB for incubation. M. luteus tubes were incubated for 48 hours at 30° C. to 35° C. P. acnes tubes were incubated for 5-7 days at 35° C. to 38° C. anaerobically, C. xerosis tubes were incubated aerobically at 36° C. to 38° C. Tubes were inspected visually for growth and indicated below. Numbers indicate the average of the zone sizes on the two plates (in millimeters) as per MIC dilution. MLC results are recorded as positive or negative for growth.
# C. xerosis ATCC#373 [2] = assay: MLC by swabbing of the zones, C. xerosis; format: cell-based, Corynebacterium xerosis; design: key: (+): MLC results are recorded as positive or negative for growth; (−): MLC results are recorded as positive or negative for growth
# Description: as §1
# P. acnes ATCC#11827 [3] = assay: MIC via Zone of Inhibition testing, P. acnes; format: cell-based, Propoinibacterium acnes
# Description: (§2) For culture preparation, an overnight Tryptic Soy Agar (TSA) culture was grown with M. luteus ATCC #10240. This culture was washed and diluted with saline to 85% transmittance at 530 nm. An overnight anaerobic culture of P. acnes ATCC#11827 was prepared in Brain Heart Infusion Broth (BHIB). This was washed with saline and diluted to 85% transmittance at 530 nm. An overnight aerobic culture of C. xerosis ATCC#373 was also grown in BHIB, washed with saline and diluted to 85% transmittance at 530 nm. These cultures were used as inocula. Three sets of nine different dilutions of sample were prepared for MIC results using TSA or BHIB as follows: (1) 2.0 grams sample+8.0 mL media=1:5 or 20%; (2) 2.0 mL of #1+8.0 mL media=1:25 or 4%; (3) 2.0 mL of #2+8.0 mL media=1:125 or 0.8%; (4) 2.0 mL of #3+8.0 mL media=1:625 or 0.16%; (5) 2.0 mL of #4+8.0 mL media=1:3125 or 0.032%; (6) 2.0 mL of #5+8.0 mL media=1:15625 or 0.0064%; (7) 2.0 mL of #6+8.0 mL media=1:78125 or 0.00128%; (8) 2.0 mL of #7+8.0 mL media=1:390625 or 0.000256%; and (9) 2.0 mL of #8+8.0 mL media=1:1953125 or 0.0000512%.
# (§3) The product dilutions were dispensed onto Zone of Inhibition plates. TSA and BHIB plates were prepared by using the base and seed method. Seed consisted of 2.0 mL of inoculum per 20.0 mL of TSA or BHIB used. A single penicylinder placed in the center of the plate when agar was solidified. Each penicylinder was inoculated with 200 μL of the MIC dilutions listed above; this procedure was performed in duplicate. Control plates were performed simultaneously; also using the base and seed method. M. luteus plates were incubated for 48 hours at 30° C. to 35° C. P. acnes plates were incubated for 5-7 days 36° C. to 38° C. anaerobically, C. xerosis plates were incubated aerobically at 36° C. to 38° C. Plates were measured for zones and calculated in millimeters.
# as §1
# C. xerosis ATCC#373 [4] = assay: MIC via Zone of Inhibition testing, C. xerosis; format: cell-based, Corynebacterium xerosis
# Description: as §2, §3, §1
# human skin = assay: Irritation and sensitization of human skin; format: in vivo; details: at levels effective for suppressing malodor formation
# [5] = system: Micrococcus luteus ATCC #10240; assay: MLC by swabbing of the zones, M. luteus; format: cell-based; design: key: (+): MLC results are recorded as positive or negative for growth; (−): MLC results are recorded as positive or negative for growth
# Description: as §1
# [6] = system: Micrococcus luteus ATCC #10240; assay: MIC via Zone of Inhibition testing, M. luteus; format: cell-based
# Description: as §2, §3
# For MLC Preparation, swabbing of the zones was performed to calculate MLC results. […] These swabs were then placed in TSA or BHIB for incubation. […] MLC results are recorded as positive or negative for growth.
# gram-positive bacteria = assay: Killing and suppressing gram-positive bacteria; format: cell-based
# [7] = Solubility in cosmetic solvents; format: physicochemical
structure (smiles),measurement,setting,value
"CCCCCCCCCC(=O)N(C)C [dimethyl capramide, N,N-dimethyldecanamide]","MLC Results, growth from swabbed zone",P. acnes ATCC#11827 [1]; dilution 1:5 (20%),(−)
same,"MLC Results, growth from swabbed zone",P. acnes ATCC#11827 [1]; dilution 1:25 (4%),(−)
same,"MLC Results, growth from swabbed zone",P. acnes ATCC#11827 [1]; dilution 1:125 (0.8%),(+)
same,"MLC Results, growth from swabbed zone",P. acnes ATCC#11827 [1]; dilution 1:625 (0.16%),(+)
same,"MLC Results, growth from swabbed zone",C. xerosis ATCC#373 [2]; dilution 1:5 (20%),(−)
same,"MLC Results, growth from swabbed zone",C. xerosis ATCC#373 [2]; dilution 1:25 (4%),(−)
same,"MLC Results, growth from swabbed zone",C. xerosis ATCC#373 [2]; dilution 1:125 (0.8%),(−)
same,"MLC Results, growth from swabbed zone",C. xerosis ATCC#373 [2]; dilution 1:625 (0.16%),(+)
same,"MLC Results, growth from swabbed zone",C. xerosis ATCC#373 [2]; dilution 1:3125 (0.032%),(+)
same,"MIC/Zone of Inhibition, average zone size",P. acnes ATCC#11827 [3]; dilution 1:5 (20%),21.2 millimeters
same,"MIC/Zone of Inhibition, average zone size",P. acnes ATCC#11827 [3]; dilution 1:25 (4%),23.8 millimeters
same,"MIC/Zone of Inhibition, average zone size",P. acnes ATCC#11827 [3]; dilution 1:125 (0.8%),18.0 millimeters
same,"MIC/Zone of Inhibition, average zone size",P. acnes ATCC#11827 [3]; dilution 1:625 (0.16%),8.1 millimeters
same,"MIC/Zone of Inhibition, average zone size",C. xerosis ATCC#373 [4]; dilution 1:5 (20%),20.2 millimeters
same,"MIC/Zone of Inhibition, average zone size",C. xerosis ATCC#373 [4]; dilution 1:25 (4%),13.9 millimeters
same,"MIC/Zone of Inhibition, average zone size",C. xerosis ATCC#373 [4]; dilution 1:125 (0.8%),17.3 millimeters
same,"MIC/Zone of Inhibition, average zone size",C. xerosis ATCC#373 [4]; dilution 1:625 (0.16%),8.6 millimeters
same,"MIC/Zone of Inhibition, average zone size",C. xerosis ATCC#373 [4]; dilution 1:3125 (0.032%),7.2 millimeters
same,irritation of human skin,human skin,non-irritating
same,"MLC Results, growth from swabbed zone",[5]; dilution 1:5 (20%),(−)
same,"MLC Results, growth from swabbed zone",[5]; dilution 1:25 (4%),(+)
same,"MLC Results, growth from swabbed zone",[5]; dilution 1:125 (0.8%),(+)
same,"MIC/Zone of Inhibition, average zone size",[6]; dilution 1:5 (20%),14.7 millimeters
same,"MIC/Zone of Inhibition, average zone size",[6]; dilution 1:25 (4%),14.2 millimeters
same,"MIC/Zone of Inhibition, average zone size",[6]; dilution 1:125 (0.8%),13.6 millimeters
same,killing and suppressing gram-positive bacteria,gram-positive bacteria,effective in killing and suppressing
same,solubility,[7]; in cyclomethicone,greater than 50 wt. %
same,solubility,[7]; in propylene glycol,greater than 50 wt. %
